In patent US20050032904A1, “Composition and use of allylamine derivatives” (priority 2003, published 2005):

How the values were obtained:
HL60 = assay: Determination of cell growth curve (cell counting); format: cell-based, human; details: 5 days
Procedure: (§1) The effect of TB on the growth of various human cancer cells […]. In FIG. 1, (A) COLO205, (B) HT29, (C) HepG2, (D) Hep3B, (E) HL60, and (F) normal human fibroblast cells were treated with various concentrations of TB (30 to 120 μM). Media with or without TB were renewed daily until cell counting. Three samples were analyzed in each group. Values represent mean±S.E. The cells were cultured for 5 days with or without TB (30-120 μM), and then the cells were harvested and counted. […] Human colon cancer, hepatoma, leukemia, and human normal fibroblast cells at a density of 1×10^4 were plated in 35-mm Petri dishes. TB was added at the indicated doses in 0.05% dimethyl-sulfoxide (DMSO). For control specimens, the same volume of the 0.05% DMSO without TB was added. Media with and without TB were changed daily until cell counting

HT29 = assay: Determination of cell growth curve (cell counting); format: cell-based, human; details: 5 days
Procedure: as §1

Hep3B = assay: Determination of cell growth curve (cell counting); format: cell-based, human; details: 5 days
Procedure: as §1

HepG2 = assay: Determination of cell growth curve (cell counting); format: cell-based, human; details: 5 days
Procedure: as §1

[1] = tested on: human gingival fibroblasts; assay: Determination of cell growth curve (cell counting); format: cell-based; details: 5 days
Procedure: The effect of TB on the growth of various human cancer cells wasexamined. In FIG. 1, (A) COLO205, (B) HT29, (C) HepG2, (D) Hep3B, (E) HL60, and (F) normal human fibroblast cells were treated with various concentrations of TB (30 to 120 μM). Media with or without TB were renewed daily until cell counting. Three samples were analyzed in each group. Values represent mean±S.E. The cells were cultured for 5 days with or without TB (30-120 μM), and then the cells were harvested and counted. […] However, when TB concentration was increased to 120 μM, a 50% growth inhibition was observed.
Human colon cancer, hepatoma, leukemia, and human normal fibroblast cells at a density of 1×10^4 were plated in 35-mm Petri dishes. TB was added at the indicated doses in 0.05% dimethyl-sulfoxide (DMSO). For control specimens, the same volume of the 0.05% DMSO without TB was added. Media with and without TB were changed daily until cell counting

Hep 3B cells = assay: Flow cytometry (FACS) cell cycle analysis; format: cell-based, human; details: TB 10-150 μM, 15 h
human fibroblasts = assay: Flow cytometry (FACS) cell cycle analysis; format: cell-based
[2] = tested on: COLO 205 tumor xenografts; assay: Treatment of COLO 205-derived xenografts in vivo; parameters: species or system nude mouse
Procedure: Genomic DNAs extracted from TB-treated COLO 205 were examined by gel electrophoresis. […] DNA fragmentation was examined at 24 h after drug treatment. In the lanes 2 and 8, cells received mock treatment as controls. […] Comparisons were subjected to ANOVA followed by Fisher's least significant difference test. […] Since, retardation of the cell cycle and/or activation of the cellular apoptotic response are two major mechanisms preventing tumor growth, we examined the TB effect on the cell cycle and apoptosis occurrence of the solid tumor derived from the implanted COLO 205. The COLO-205 cells (5×10^6) in 0.1 ml RPMI 1640 were injected subcutaneously between the scapulae of each nude mouse (purchased from National Science Council animal center, Taipei). […]

[3] = TB 30-120 μM, media renewed daily, dose-dependent
[4] = TB concentration increased to 60 μM

CN(C/C=C/C#CC(C)(C)C)Cc1cccc2ccccc12 [TB, 1-Naphthalenemethanamine, N-(6,6-dimethyl-2-hepten-4-ynyl)-N-methyl-, (E)-]
cell number (HL60; [3]): decreased cell number
cell growth at TB 60 μM (HL60; [4]): cell growth arrest or cell death
cell number (HT29; [3]): decreased cell number
cell growth at TB 60 μM (HT29; [4]): cell growth arrest or cell death
cell number (Hep3B; [3]): decreased cell number
cell growth at TB 60 μM (Hep3B; [4]): cell growth arrest or cell death
cell number (HepG2; [3]): decreased cell number
cell growth at TB 60 μM (HepG2; [4]): cell growth arrest or cell death
inhibition at 120 µM ([1]; Homo sapiens, Fibroblast, 120 h, TB 120 μM, medium changed daily, read-out: growth inhibition (reduction of cell count)): 50%
growth rate ([1]; TB 30-60 μM): did not inhibit the growth rate
apoptosis (presence of sub G1) (Hep 3B cells): dose-dependently caused the occurrence of apoptosis
G0/G1 arrest (Hep 3B cells; p53 partial deleted cells): did not induce G0/G1 arrest
cytotoxicity for untransformed human fibroblasts (human fibroblasts; TB 10-150 μM): not cytotoxic
cell cycle arrest or cell death (human fibroblasts; TB treatment for 15 h): did not induce cell cycle arrest or cell death
cytotoxicity for the vital organs ([2]; 50 mg/Kg body weight): not cytotoxic for the vital organs
tumor volume vs. vehicle (DMSO plus peanut oil) ([2]; TB 50 mg/kg, ND 5 mg/kg, intraperitoneal, 3 times per week for 6 weeks): reduction in tumor volume
tumor size of the COLO 205 tumor mass ([2]; intraperitoneal TB 50 mg/kg): substantial decline in tumor size
